Measured values from BigSolDB 2.1.

Settings: in water

solubility (mole fraction) (278.15 K) | solubility (mole fraction) (283.15 K) | solubility (mole fraction) (288.15 K) | solubility (mole fraction) (293.15 K) | solubility (mole fraction) (298.15 K) | solubility (mole fraction) (303.15 K) | solubility (mole fraction) (308.15 K) | solubility (mole fraction) (313.15 K) | solubility (mole fraction) (318.65 K) | solubility (mole fraction) (323.15 K) | solubility (mole fraction) (328.15 K) | solubility (mole fraction) (333.15 K) | solubility (mole fraction) (338.15 K) | Compound
0.0673 | 0.0779 | 0.0869 | 0.0969 | 0.111 | 0.124 | 0.142 | 0.154 | 0.174 | 0.184 | 0.199 | 0.218 | 0.232 | O=C(O)/C=C\C(=O)O
0.112 | 0.121 | 0.132 | 0.145 | 0.158 | 0.168 | 0.181 | 0.198 | 0.209 | 0.231 | 0.248 | 0.269 | 0.294 | O=C(O)CC(O)C(=O)O (stereo unspecified)
